Laboratory results as given in patent publication US12662451B2, “Chemical compounds and uses thereof” (GLAXOSMITHKLINE INTELLECTUAL PROPERTY (NO.4) LIMITED, priority 2023, dated 2026).
Counter-ions that a name gives are not always drawn. Like-named read-outs stand apart in the source and are kept apart here.

Assays:
[1] = molecular target: T1, recombinant full-length WRN protein (1-1432) (Homo sapiens, UniProt Q14191); assay: WRN unwinding activity, fluorogenic 384-well assay (Example A); format: biochemical; conditions: WRN unwinding activity, 4 hr; Table 2; read-out: 4 hr UNW pIC50 (converted)
T1 construct: recombinant full-length WRN protein (1-1432)
Outline: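 Read-out is end-point unwinding of a fluorophore/quencher duplex (ex 525, em 598 nm) after 60 min with 200 μM ATP and 12 nM DNA (2× stocks), EDTA stop. Compound first sat 4 h with 200 pM WRN (2× stock) in pH 8.0 Tris buffer; four-parameter fit gives pIC50.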

[2] = test system: SW48 human colorectal cancer cells; assay: Calculated free drug potency in SW48 cell assay, corrected with media free fraction (Example C); format: cell-based; conditions: Homo sapiens, SW48, SW48 pCC50 corrected with measured free fraction in cell assay media
Outline: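 Free drug potency derives from correcting SW48 assay concentrations with the unbound fraction in medium. That fraction came from RED against pH 7.4 PBS, 1 μM nominal compound, 4 h at 37 °C, quantified by LC-MS/MS peak area ratios at T=240 versus T=0 min.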

[3] = Cell culture media unbound percentage and stability by rapid equilibrium dialysis (Example C); format: in vitro ADME; conditions: bovine, cell assay medium (RPMI-1640 with 10% fetal bovine serum), pH 7.4, rapid equilibrium dialysis, 4 hours at 37° C., read-out: Cell Culture Media Binding (% unbound)
Outline: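 Percent unbound in cell assay medium came from the LC-MS/MS receiver:donor peak area ratio, with stability taken as the 240 min over 0 min ratio. Set-up: 1 μM nominal compound in medium dialysed against pH 7.4 PBS (100 mM phosphate, 150 mM NaCl), 4 h, 37° C, shaken, in triplicate.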

[4] = test system: SW48 human colorectal cancer cells (MSI-H cancer cells); assay: SW48 cell viability, CellTiter-Glo, 120 hours (Example B); conditions: Homo sapiens
Experimental: SW48 human colorectal cancer cells (MSI-H cancer cells) were obtained from the American Type Culture Collection and maintained in growth medium composed of RPMI-1640 supplemented with 10% fetal bovine serum. Cells were maintained in a humidified 5% CO2 incubator at 37° C. Cell dissociation was conducted using TrypLE Select to detach cells from culture flasks. Following dissociation, cells were centrifuged briefly and resuspended in assay medium RPMI-1640+10% fetal bovine serum. Black 384-well assay plates were prepared from source plates of DMSO and compounds dissolved in DMSO prior to cell dispensation. These source plates were prepared in eleven point, 3-fold serial dilutions from 10 mM stocks stored at 4° C. Compounds and DMSO controls were dispensed into assay plates at 150 nanoliters per well from source plates using Labcyte Echo 555 or Echo 655T dispensers with Column 6 and Column 18 containing DMSO only. Cells were then seeded into prepared assay plates in 50 microliters assay medium at 250 cells per well into Columns 1 thru 17 and Columns 19-24. Assay medium without cells was added to column 18 to serve as a surrogate for 100% cell cytotoxicity. Following incubation for 120 hours in a humidified 5% CO2 incubator at 37° C., cellular ATP concentration of each well was measured and used as a surrogate of cell viability. This was performed by adding 50 microliters of CellTiter-Glo reagent to each well followed by a 10-minute incubation at room temperature. Luminescence was measured on a Synergy Neo or Synergy Neo2 multimode plate reader. Compound cytotoxic response (% C) was normalized to the robust means of column 6 (Control 1, 0% Cytotoxicity) and column 18 (Control 2, 100% Cytotoxicity) and normalized % cytotoxicity (% C) calculated. % C=100−100*((Compound−Control 2)/(Control1−Control2)). These normalized data were then used to determine a 50% cytotoxic response (CC50) using 4-parameter logistic curve model 201 in Activity Base XE:
[formula] • where A=minimum asymptote (% cytotoxicity), B=maximum asymptote (% cytotoxicity), C=Log CC50 (pCC50), D=Hill slope, and x=[inhibitor], (M).

[5] = SW48, 120 h, read-out: SW48 pCC50, SW48 cell viability, 120 hours incubation (converted), Table 2
[6] = SW48, read-out: SW48 pCC50, measured potency from Example B, as repeated in Table 3 (converted)

T1 sequence (Q14191 whole entry): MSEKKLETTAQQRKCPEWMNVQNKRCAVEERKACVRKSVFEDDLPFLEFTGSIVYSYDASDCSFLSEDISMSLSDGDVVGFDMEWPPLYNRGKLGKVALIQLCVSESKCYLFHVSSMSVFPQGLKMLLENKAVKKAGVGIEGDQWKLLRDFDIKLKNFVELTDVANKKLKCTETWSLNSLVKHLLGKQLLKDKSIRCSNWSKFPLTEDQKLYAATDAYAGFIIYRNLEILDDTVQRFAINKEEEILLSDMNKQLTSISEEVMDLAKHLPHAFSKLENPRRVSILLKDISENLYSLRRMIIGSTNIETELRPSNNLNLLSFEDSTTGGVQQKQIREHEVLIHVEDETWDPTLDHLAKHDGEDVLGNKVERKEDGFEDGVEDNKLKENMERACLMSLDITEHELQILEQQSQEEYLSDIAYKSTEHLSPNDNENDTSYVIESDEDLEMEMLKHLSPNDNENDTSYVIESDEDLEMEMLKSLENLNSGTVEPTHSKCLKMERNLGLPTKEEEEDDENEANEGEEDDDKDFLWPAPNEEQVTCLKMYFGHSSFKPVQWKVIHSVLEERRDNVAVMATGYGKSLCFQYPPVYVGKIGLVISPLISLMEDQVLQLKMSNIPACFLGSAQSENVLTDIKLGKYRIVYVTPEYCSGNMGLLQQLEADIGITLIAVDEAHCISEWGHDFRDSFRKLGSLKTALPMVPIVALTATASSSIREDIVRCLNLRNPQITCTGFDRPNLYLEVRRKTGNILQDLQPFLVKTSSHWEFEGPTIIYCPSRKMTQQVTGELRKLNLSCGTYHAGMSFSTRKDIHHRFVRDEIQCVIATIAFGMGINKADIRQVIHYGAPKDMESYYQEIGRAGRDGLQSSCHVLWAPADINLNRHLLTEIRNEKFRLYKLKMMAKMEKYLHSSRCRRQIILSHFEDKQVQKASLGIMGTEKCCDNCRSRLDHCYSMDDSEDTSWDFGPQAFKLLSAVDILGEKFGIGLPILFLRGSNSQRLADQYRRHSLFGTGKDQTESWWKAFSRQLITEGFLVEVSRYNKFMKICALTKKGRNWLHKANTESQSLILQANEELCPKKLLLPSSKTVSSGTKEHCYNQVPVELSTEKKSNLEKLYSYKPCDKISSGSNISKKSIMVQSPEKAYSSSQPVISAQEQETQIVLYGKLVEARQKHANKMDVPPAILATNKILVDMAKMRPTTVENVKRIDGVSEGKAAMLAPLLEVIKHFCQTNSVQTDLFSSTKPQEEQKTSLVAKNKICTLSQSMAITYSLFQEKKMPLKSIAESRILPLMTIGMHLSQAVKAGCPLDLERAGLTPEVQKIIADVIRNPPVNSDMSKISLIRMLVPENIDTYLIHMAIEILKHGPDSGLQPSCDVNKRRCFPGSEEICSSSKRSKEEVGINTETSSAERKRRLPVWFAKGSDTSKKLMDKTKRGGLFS

Compound	IC50 [1] [µM]	CC50 [2] [µM]	fraction unbound at 4 h, 1 µM [3]	CC50 [4, 5] [µM]	CC50 [4, 6] [µM]
CN[C@@H]1C[C@H](c2ccc(N(C)S(=O)(=O)c3ccc4c(c3)nc(C)n4C)cc2)[C@@H](C(=O)O)[C@H](C(=O)Nc2ccc(C(F)(F)F)cc2F)C1 (single isomer, unassigned) [Example 256]	0.00126	1.78	0.284	6.31	6.31
CC(=O)N[C@@H]1C[C@@H](COc2ccc(C(F)(F)F)cc2)[C@H](C(=O)O)[C@@H](c2ccc(N(C)S(=O)(=O)c3ccc4c(c3)nc(C)n4C)cc2)C1 (single isomer, unassigned) [Example 298]	0.501	1.51	0.151	10	
CN(c1ccc([C@H]2CCC[C@@H](C(=O)Nc3ccc(C(F)(F)F)cc3F)[C@@H]2C(=O)O)cc1)S(=O)(=O)c1ccc2c(ccn2C)c1 [Example 107, (1R,2S,6R)-2-(4-((N, 1-dimethyl-1H-indole)-5-sulfonamido)phenyl)-6-((2-fluoro-4-(trifluoromethyl)phenyl)carbamoyl)cyclohexane-1-carboxylic acid]	0.00501	0.0195	0.0245	0.794	0.794
Cc1nc2cc(S(=O)(=O)N(C)c3ccc([C@H]4C[C@@H](OC(F)F)C[C@@H](C(=O)Nc5ccc(C(F)(F)F)cc5F)[C@@H]4C(=O)O)cc3)ccc2n1C (stereo in doubt) [Example 284, rel-(1R,2R,4R,6S)-4-(difluoromethoxy)-2-((2-fluoro-4-(trifluoromethyl)phenyl)carbamoyl)-6-(4-((N,1,2-trimethyl-1H-benzo[d]imidazole)-5-sulfonamido)phenyl)cyclohexane-1-carboxylic acid]	0.00316	0.0135	0.068	0.2	0.2
Cc1nc2cc(S(=O)(=O)N(C)c3ccc([C@H]4C[C@@H](N(C)C)C[C@@H](C(=O)Nc5ccc(C(F)(F)F)cc5F)[C@@H]4C(=O)O)cc3)ccc2n1C (stereo in doubt) [Example 251, rel-(1R,2R,4R,6S)-4-(dimethylamino)-2-((2-fluoro-4-(trifluoromethyl)phenyl)carbamoyl)-6-(4-((N,1,2-trimethyl-1H-benzo[d]imidazole)-5-sulfonamido)phenyl)cyclohexane-1-carboxylic acid]	0.001	0.138	0.274	0.501	0.501
CN1CCC[C@@H](c2cccc(S(=O)(=O)N(C)c3ccc([C@H]4CCC[C@@H](C(=O)Nc5ccc(C(F)(F)F)cc5F)[C@@H]4C(=O)O)cc3)c2)C1 [Example 116, (1R,2R,6S)-2-((2-fluoro-4-(trifluoromethyl)phenyl)carbamoyl)-6-(4-((N-methyl-3-((S)-1-methylpiperidin-3-yl)phenyl)sulfonamido)phenyl)cyclohexane-1-carboxylic acid]	0.00158	0.145	0.286	0.501	0.501
Cc1nc2cc(S(=O)(=O)N(C)c3ccc([C@H]4C[C@@H](N5CC[C@@H](F)C5)C[C@@H](C(=O)Nc5ccc(C(F)(F)F)cc5F)[C@@H]4C(=O)O)cc3)ccc2n1C (stereo in doubt) [Example 382, rel-(1R*,2R*,4R*,6S*)-2-((2-fluoro-4-(trifluoromethyl)phenyl)carbamoyl)-4-((R)-3-fluoropyrrolidin-1-yl)-6-(4-((N,1,2-trimethyl-1H-benzo[d]imidazole)-5-sulfonamido)phenyl)cyclohexane-1-carboxylic acid]	0.00158	0.00851	0.136	0.0631	0.0631
Cc1nc2cc(S(=O)(=O)N(C)c3ccc([C@H]4CCC[C@@H](C(=O)Nc5ccc(C(F)(F)F)cc5F)[C@@H]4C(=O)O)cc3)cc(CCN)c2n1C [Example 289, (1R,2S,6R)-2-(4-((7-(2-aminoethyl)-N,1,2-trimethyl-1H-benzo[d]imidazole)-5-sulfonamido)phenyl)-6-((2-fluoro-4-(trifluoromethyl)phenyl)carbamoyl)cyclohexane-1-carboxylic acid, hydrochloride]	0.00158	4.07	0.412	10	
Cc1nc2cc(S(=O)(=O)N(C)c3ccc([C@@H]4C[C@H](N5CCC(F)(F)CC5)C[C@H](C(=O)Nc5ccc(C(F)(F)F)cc5F)[C@H]4C(=O)O)cc3)ccc2n1C (stereo in doubt) [Example 343]	0.1	1.17	0.237	5.01	5.01
Cc1nc2cc(S(=O)(=O)N(C)c3ccc([C@H]4C[C@@H](OCC5CC5)C[C@@H](C(=O)Nc5ccc(C(F)(F)F)cc5F)[C@@H]4C(=O)O)cc3)ccc2n1C (stereo in doubt) [Example 314, rel-(1R,2R,4R,6S)-4-(cyclopropylmethoxy)-2-((2-fluoro-4-(trifluoromethyl)phenyl)carbamoyl)-6-(4-((N,1,2-trimethyl-1H-benzo[d]imidazole)-5-sulfonamido)phenyl)cyclohexane-1-carboxylic acid]	0.00158	0.0126	0.0795	0.158	0.158
CN1CCN(c2cc(S(=O)(=O)N(C)c3ccc([C@H]4CCC[C@@H](C(=O)Nc5ccc(C(F)(F)F)cc5F)[C@@H]4C(=O)O)cc3)cc3ccoc23)CC1 [Example 265, (1R,2R,6S)-2-((2-fluoro-4-(trifluoromethyl)phenyl)carbamoyl)-6-(4-((N-methyl-7-(4-methylpiperazin-1-yl)benzofuran)-5-sulfonamido)phenyl)cyclohexane-1-carboxylic acid]	0.00631	0.0912	0.115	0.794	0.794
Cc1cc(N(C)S(=O)(=O)c2ccc3c(c2)nc(C)n3C)ccc1[C@H]1CCC[C@@H](C(=O)Nc2ccc(C(F)(F)F)cc2F)[C@@H]1C(=O)O (stereo in doubt) [Example 386, rel-(1R,2R,6S)-2-((2-fluoro-4-(trifluoromethyl)phenyl)carbamoyl)-6-(2-methyl-4-((N,1,2-trimethyl-1H-benzo[d]imidazole)-5-sulfonamido)phenyl)cyclohexane-1-carboxylic acid]	0.00398	0.2	0.1	2	2
Cc1nc2cc(S(=O)(=O)N(C)c3ccc([C@H]4CCC[C@@H](C(=O)Nc5ccc(C(F)(F)F)cc5)[C@@H]4C(=O)O)cc3)ccc2n1C [Example 173, (1R,2R,6S)-2-((4-(trifluoromethyl)phenyl)carbamoyl)-6-(4-((N,1,2-trimethyl-1H-benzo[d]imidazole)-5-sulfonamido)phenyl)cyclohexane-1-carboxylic acid]	0.00501	0.0102	0.0163	0.631	0.631
Cc1nc2cc(S(=O)(=O)N(C)c3ccc([C@H]4CCC[C@@H](C(=O)Nc5ccc(C(C)(C)O)cc5F)[C@@H]4C(=O)O)cc3)ccc2n1C [Example 181, (1R,2R,6S)-2-((2-fluoro-4-(2-hydroxypropan-2-yl)phenyl)carbamoyl)-6-(4-((N,1,2-trimethyl-1H-benzo[d]imidazole)-5-sulfonamido)phenyl)cyclohexane-1-carboxylic acid]	0.00158	0.603	0.303	2	2
Cc1nc2cc(S(=O)(=O)N(C)c3ccc([C@@H]4C[C@@H](N5CCC[C@@H](F)C5)C[C@H](C(=O)Nc5ccc(C(F)(F)F)cc5F)[C@H]4C(=O)O)cc3)ccc2n1C (stereo in doubt) [Example 346, rel-(1R*,2R*,4S*,6S*)-2-((2-fluoro-4-(trifluoromethyl)phenyl)carbamoyl)-4-((R)-3-fluoropiperidin-1-yl)-6-(4-((N,1,2-trimethyl-1H-benzo[d]imidazole)-5-sulfonamido)phenyl)cyclohexane-1-carboxylic acid]	3.98	4.17	0.419	10	
Cc1nc2cc(S(=O)(=O)N(C)c3ccc([C@H]4CC(F)(F)C[C@@H](C(=O)Nc5ccc(C(F)(F)F)cc5F)[C@@H]4C(=O)O)cc3)ccc2n1C (relative stereo) [Example 363, rel-(1R,2R,6S)-4,4-difluoro-2-((2-fluoro-4-(trifluoromethyl)phenyl)carbamoyl)-6-(4-((N,1,2-trimethyl-1H-benzo[d]imidazole)-5-sulfonamido)phenyl)cyclohexane-1-carboxylic acid]	0.00316	0.017	0.216	0.0794	0.0794
